For experiment [1], the target named is HA-GST-Rheb (GTP-γ-S loaded) activating mTORC1 (Homo sapiens (Human), UniProt Q15382). In words: Rheb-dependent in vitro kinase assay (Rheb-IVK; LanthaScreen or Western readout). It counts as biochemical. As to conditions: Rheb-dependent in vitro kinase assay; read-out: IVK IC50.
Experiment [2] has as its target Rheb (Homo sapiens (Human), UniProt Q15382). In words: Affinity Selection Mass Spectrometry (ASMS). In kind it is binding. As to conditions: affinity (R3/R0) in Affinity Selection Mass Spectrometry assay. The essentials: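 Affinity selection used 2 μM compound with 60 μM Rheb and 180 μM GDP for 30 min at room temperature. After 10 kDa ultrafiltration washes, protein was denatured in MeCN and bound compound quantified by C18 UPLC with Q-TOF MS, against a no-protein control.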

For orientation: IC50 means the midpoint of a concentration-inhibition curve.

Where only a bound is given, the exact number is not on record here.

Rheb, sequence (Q15382 1-169 limits assumed): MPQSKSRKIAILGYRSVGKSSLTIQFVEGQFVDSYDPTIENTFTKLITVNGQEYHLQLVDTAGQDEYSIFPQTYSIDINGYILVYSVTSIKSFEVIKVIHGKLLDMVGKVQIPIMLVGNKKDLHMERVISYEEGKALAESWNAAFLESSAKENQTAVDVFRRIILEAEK
HA-GST-Rheb (GTP-γ-S loaded) activating mTORC1, sequence (Q15382 1-181): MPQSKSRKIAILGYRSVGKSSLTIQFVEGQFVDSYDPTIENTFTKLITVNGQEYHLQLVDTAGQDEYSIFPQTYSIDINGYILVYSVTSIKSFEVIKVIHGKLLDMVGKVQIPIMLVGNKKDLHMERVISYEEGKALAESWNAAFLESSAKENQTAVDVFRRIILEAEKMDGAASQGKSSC

As for `OCc1cc2c(Oc3cccc(Cl)c3)cccc2[nH]1` [I-275, (4-(3-chlorophenoxy)-1H-indol-2-yl)methanol], in experiment [1], the IC50 was in the range of 100 to 300 µM. In addition, the “ASMS (R3/R0)” value in experiment [2] was “C (an affinity (R3/R0)<20%)”.
For `CC(C)(C)OC(=O)c1ccc(Cn2c(CO)cc3c(Br)cc(Oc4ccccc4)cc32)cc1` [I-151], in that order: more than 100 µM and “C (an affinity (R3/R0)<20%)”.
For `O=C(O)c1cc2c(SCc3ccc(Cl)cc3)cc(SCc3ccc(Cl)cc3)cc2[nH]1` [I-94, 4,6-bis(4-chlorobenzylthio)-1H-indole-2-carboxylic acid], the IC50 in experiment [1] is less than 10 µM. Besides, the “ASMS (R3/R0)” value in experiment [2] is “B (an affinity (R3/R0) between 100% and 20%)”.
Regarding `OCc1cc2c(Sc3cccc4cccnc34)cc(Cl)cc2[nH]1` [I-74, (6-chloro-4-(quinolin-8-ylthio)-1H-indol-2-yl)methanol], the IC50 in experiment [1] is 10 to 100 µM. In addition, the “ASMS (R3/R0)” value in experiment [2] was “B (an affinity (R3/R0) between 100% and 20%)”.
`OCc1nc2cc(Cl)c(SCc3ccc(Cl)cc3Cl)cc2[nH]1` [I-361, (5-chloro-6-(2,4-dichlorobenzylthio)-1H-benzo[d]imidazol-2-yl)methanol]: the IC50 in experiment [1] is 100 to 300 µM. For the same compound, in experiment [2], the “ASMS (R3/R0)” value was “B (an affinity (R3/R0) between 100% and 20%)”.
Take `CN1CCC(CNC(=O)c2nc3cc(OCc4ccc(Cl)cc4)c(Cl)c(Cl)c3[nH]2)CC1` [I-337, 6,7-dichloro-5-(4-chlorobenzyloxy)-N-((1-methylpiperidin-4-yl)methyl)-1H-benzo[d]imidazole-2-carboxamide]: the half-maximal inhibitory concentration (IC50) in experiment [1] was more than 3 µM. Further, the “ASMS (R3/R0)” value in experiment [2] is “B (an affinity (R3/R0) between 100% and 20%)”.
As for `OCc1cc2ccc(Sc3ccc(Cl)cc3)cc2n1Cc1nc[nH]n1` [I-185], the half-inhibitory concentration (IC50) in experiment [1] was more than 100 µM. In addition, the “ASMS (R3/R0)” value in experiment [2] was “C (an affinity (R3/R0)<20%)”.
For `OCc1nc2c(OCc3ccccc3)cc(Cl)cc2[nH]1` [I-493], in that order: more than 100 µM and “C (an affinity (R3/R0)<20%)”.
Turning to `OCc1nc2cc(OCc3ccccc3)c(Cl)cc2n1Cc1ccc(-c2nnn[nH]2)cc1` [I-437, (1-(4-(1H-tetrazol-5-yl)benzyl)-5-(benzyloxy)-6-chloro-1H-benzo[d]imidazol-2-yl)methanol], the IC50 in experiment [1] was more than 3 µM. Besides, the “ASMS (R3/R0)” value in experiment [2] is recorded as “C (an affinity (R3/R0)<20%)”.
Consider `O=C(O)c1cc2c(Oc3ccc(C4CCCCC4)cc3)cc(Cl)cc2[nH]1` [I-125, 6-chloro-4-(4-cyclohexylphenoxy)-1H-indole-2-carboxylic acid], for which, in experiment [1], the IC50 was less than 10 µM. Moreover, the “ASMS (R3/R0)” value in experiment [2] was “B (an affinity (R3/R0) between 100% and 20%)”.
`OCCc1cc2c(Oc3ccccc3)c(Cl)ccc2[nH]1` [I-261, 2-(5-chloro-4-phenoxy-1H-indol-2-yl)ethanol]: the IC50 in experiment [1] was 10 to 100 µM. Besides, the “ASMS (R3/R0)” value in experiment [2] is on record as “C (an affinity (R3/R0)<20%)”.
Regarding `N#Cc1ccc(Cn2ccc3c(Sc4ccc(Cl)cc4Cl)cccc32)cc1` [I-160], the IC50 in experiment [1] was more than 100 µM. The “ASMS (R3/R0)” value in experiment [2] is reported as “C (an affinity (R3/R0)<20%)”.
For `CC(C)(C)OC(=O)c1ccc(Cn2ccc3c(Br)cc(Oc4ccccc4)cc32)cc1` [I-163], in that order: more than 100 µM and “C (an affinity (R3/R0)<20%)”.
For `OCc1cc2c(Oc3ccccc3)cc(Cl)cc2[nH]1` [I-291, (6-Chloro-4-phenoxy-1H-indol-2-yl)methanol], in that order: 10 to 100 µM and “C (an affinity (R3/R0)<20%)”.
With `Clc1ccc(Sc2cc(Cl)cc3[nH]c(-c4c[nH]c5ncccc45)nc23)cc1` [I-339, 6-chloro-4-(4-chlorophenylthio)-2-(1H-pyrrolo[2,3-b]pyridin-3-yl)-1H-benzo[d]imidazole], the IC50 in experiment [1] is more than 3 µM. Also, the “ASMS (R3/R0)” value in experiment [2] is “B (an affinity (R3/R0) between 100% and 20%)”.
For `NCCn1c(CO)cc2c(Oc3ccccc3)cc(Cl)cc21` [I-168], the 50% inhibitory concentration (IC50) in experiment [1] is more than 100 µM. Besides, the “ASMS (R3/R0)” value in experiment [2] was “C (an affinity (R3/R0)<20%)”.
Turning to `CN(C)C(=O)c1ccc(Cn2c(C(=O)O)cc3c(Br)cc(SC4CCCCC4)cc32)cc1` [I-11], the IC50 in experiment [1] is more than 3 µM. Moreover, in experiment [2], the “ASMS (R3/R0)” value was “B (an affinity (R3/R0) between 100% and 20%)”.
Take `CN1CCN(c2ccc(NC(=O)c3cc4c(Sc5ccc(Cl)cc5Cl)cc(Cl)cc4[nH]3)cc2Cl)CC1` [I-111, 6-chloro-N-(3-chloro-4-(4-methylpiperazin-1-yl)phenyl)-4-(2,4-dichlorophenylthio)-1H-indole-2-carboxamide]: the IC50 in experiment [1] was less than 10 µM. In addition, in experiment [2], the “ASMS (R3/R0)” value is listed as “C (an affinity (R3/R0)<20%)”.
As for `OCc1cc2c(Sc3ccc(OC(F)(F)F)cc3)cc(Cl)cc2[nH]1` [I-123, (6-chloro-4-(4-(trifluoromethoxy)phenylthio)-1H-indol-2-yl)methanol], the IC50 in experiment [1] is less than 10 µM. Further, in experiment [2], the “ASMS (R3/R0)” value was “B (an affinity (R3/R0) between 100% and 20%)”.
For `CC(C)(C)OC(=O)c1ccc(Cn2c(C(=O)O)cc3c(Br)cc(Oc4ccccc4)cc32)cc1` [I-167, 4-bromo-1-(4-(tert-butoxycarbonyl)benzyl)-6-phenoxy-1H-indole-2-carboxylic acid], the concentration for half-maximal inhibition (IC50) in experiment [1] is less than 10 µM. Further, the “ASMS (R3/R0)” value in experiment [2] was “B (an affinity (R3/R0) between 100% and 20%)”.
For `Clc1ccc2[nH]c(-c3cnco3)cc2c1Oc1ccccc1` [I-256, 5-(5-chloro-4-phenoxy-1H-indol-2-yl)oxazole], the IC50 in experiment [1] lay in the range of 10 to 100 µM. Further, the “ASMS (R3/R0)” value in experiment [2] is “B (an affinity (R3/R0) between 100% and 20%)”.
In the case of `OCCCc1cc2c(Oc3ccccc3)c(Cl)ccc2[nH]1` [I-248, 3-(5-chloro-4-phenoxy-1H-indol-2-yl)propan-1-ol], the IC50 in experiment [1] lay in the range of 10 to 100 µM. The “ASMS (R3/R0)” value in experiment [2] is given as “C (an affinity (R3/R0)<20%)”.
On to `Cc1cc(Sc2ccc(Cl)cc2)c2cc(C(=O)O)[nH]c2c1C` [I-58, 4-(4-chlorophenylthio)-6,7-dimethyl-1H-indole-2-carboxylic acid], for which the IC50 in experiment [1] was in the range of 10 to 100 µM. In addition, the “ASMS (R3/R0)” value in experiment [2] was “B (an affinity (R3/R0) between 100% and 20%)”.
Consider `O=C(O)c1cc2nc(-c3ccnc4[nH]ccc34)[nH]c2c(Cl)c1Cl` [I-327], for which the half-inhibitory concentration (IC50) in experiment [1] is more than 100 µM. Further, in experiment [2], the “ASMS (R3/R0)” value was “C (an affinity (R3/R0)<20%)”.
Consider `Nc1ccc(-c2ccc(Cn3c(C(=O)O)cc4c(Sc5ccc(Cl)cc5Cl)cc(Cl)cc43)cc2)cc1` [I-78, 1-((4′-aminobiphenyl-4-yl)methyl)-6-chloro-4-(2,4-dichlorophenylthio)-1H-indole-2-carboxylic acid], for which the IC50 in experiment [1] is less than 10 µM. For the same compound, the “ASMS (R3/R0)” value in experiment [2] was “B (an affinity (R3/R0) between 100% and 20%)”.
As to `c1ccc(Oc2cccc3c2nc(-c2ncco2)n3Cc2ccc(-c3nnn[nH]3)cc2)cc1` [I-421, 2-(1-(4-(1H-tetrazol-5-yl)benzyl)-4-phenoxy-1H-benzo[d]imidazol-2-yl)oxazole], the IC50 in experiment [1] lay within 10 to 100 µM. The “ASMS (R3/R0)” value in experiment [2] is “C (an affinity (R3/R0)<20%)”.
For `Clc1c(Br)cc2nc(-c3ccncc3)[nH]c2c1Cl` [I-357], in that order: more than 100 µM and “A (an affinity (R3/R0)>100%)”.
As to `Clc1cc2nc(-c3ccnc4[nH]ccc34)[nH]c2cc1Cl` [I-359, 5,6-dichloro-2-(1H-pyrrolo[2,3-b]pyridin-4-yl)-1H-benzo[d]imidazole], the half-maximal inhibitory concentration (IC50) in experiment [1] is 10 to 100 µM. Moreover, the “ASMS (R3/R0)” value in experiment [2] is “A (an affinity (R3/R0)>100%)”.
For the compound `O=C(O)c1cc2c(Br)cc(Sc3ccc(Cl)c(Cl)c3)cc2n1Cc1ccc(C(=O)N2CCNCC2)cc1` [I-43], the IC50 in experiment [1] is more than 100 µM. Further, the “ASMS (R3/R0)” value in experiment [2] was “A (an affinity (R3/R0)>100%)”.
Take `O=C(O)c1ccc(Cn2c(C(=O)O)cc3c(Br)cc(Oc4ccccc4)cc32)cc1` [I-165, 4-bromo-1-(4-carboxybenzyl)-6-phenoxy-1H-indole-2-carboxylic acid]: the 50% inhibitory concentration (IC50) in experiment [1] lay in the range of 10 to 100 µM. Moreover, in experiment [2], the “ASMS (R3/R0)” value is “B (an affinity (R3/R0) between 100% and 20%)”.
Turning to `OCc1nc2c(OC[C@H]3CCCC[C@@H]3O)c(Cl)c(Cl)cc2[nH]1` (single isomer, unassigned) [I-388], in experiment [1], the IC50 lay in the range of 10 to 100 µM. In addition, the “ASMS (R3/R0)” value in experiment [2] was “B (an affinity (R3/R0) between 100% and 20%)”.
Regarding `OCc1cc2c(Br)cc(Sc3ccccc3)cc2[nH]1` [I-237, (4-bromo-6-(phenylthio)-1H-indol-2-yl)methanol], the IC50 in experiment [1] was 10 to 100 µM. Further, the “ASMS (R3/R0)” value in experiment [2] is “B (an affinity (R3/R0) between 100% and 20%)”.
Take `COc1ccc(COc2cc3nc(CO)[nH]c3c(Cl)c2Cl)cc1` [I-328]: the half-inhibitory concentration (IC50) in experiment [1] is more than 100 µM. The “ASMS (R3/R0)” value in experiment [2] is “B (an affinity (R3/R0) between 100% and 20%)”.
On to `OCc1cc2c(Sc3ccc(Cl)cc3)cc(Cl)cc2[nH]1` [I-187, (6-chloro-4-(4-chlorophenylthio)-1H-indol-2-yl)methanol], for which the half-inhibitory concentration (IC50) in experiment [1] was less than 10 µM. Further, the “ASMS (R3/R0)” value in experiment [2] is “B (an affinity (R3/R0) between 100% and 20%)”.
Take `O=C(NCC1CCOCC1)c1cc2c(Sc3ccc(Cl)cc3)cc(Cl)cc2[nH]1` [I-143]: in experiment [1], the 50% inhibitory concentration (IC50) is more than 100 µM. The “ASMS (R3/R0)” value in experiment [2] is “B (an affinity (R3/R0) between 100% and 20%)”.
For `O=C(NCc1ccccn1)c1cc2c(Sc3ccc(Cl)cc3)cc(Cl)cc2[nH]1` [I-149, 6-chloro-4-(4-chlorophenylthio)-N-(pyridin-2-ylmethyl)-1H-indole-2-carboxamide], in experiment [1], the half-inhibitory concentration (IC50) fell in the range of 10 to 100 µM. The “ASMS (R3/R0)” value in experiment [2] was “B (an affinity (R3/R0) between 100% and 20%)”.
With `CN(C)C(=O)c1ccc(Cn2c(C(=O)O)cc3c(Br)cc(Sc4ccc(Oc5ccccc5)cc4)cc32)cc1` [I-15, 4-bromo-1-(4-(dimethylcarbamoyl)benzyl)-6-(4-phenoxyphenyl-thio)-1H-indole-2-carboxylic acid], the IC50 in experiment [1] was less than 10 µM. Besides, the “ASMS (R3/R0)” value in experiment [2] was “B (an affinity (R3/R0) between 100% and 20%)”.
`OCc1cc2c(Cl)cc(Oc3ccccc3)cc2n1Cc1nc[nH]n1` [I-226]: in experiment [1], the IC50 is more than 100 µM. The “ASMS (R3/R0)” value in experiment [2] was “C (an affinity (R3/R0)<20%)”.

The values are drawn from US11339144B2 (Navitor Pharmaceuticals, Inc., priority 2017, dated 2022).
